Data: the supplement of paper PMC10307832

Legend:
Experiment in all cases: relative viability (nuclei count vs DMSO), 5 days (fraction); higher = more cells survive
[1] = tested on: NCI-H2085
Procedure, shortened: (§1)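 The day after seeding in 1536-well plates, lung cancer cell lines were treated by pin tool with a single drug, or with a fixed anchor-drug dose together with five library-drug doses (not always all listed) in √10 steps. After 5 days, a combined fix-and-stain solution (final 0.05% Triton X-100, 1% formaldehyde, 1 ug/ml Hoechst) was added. Nuclei counted on 4× images gave relative viability as treated counts over vehicle counts, reported as the median of duplicate plates.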

[2] = tested on: NCI-H322M
Procedure, shortened: as §1

[3] = tested on: CAL-12T
Procedure, shortened: as §1

[4] = tested on: LCLC-103H
Procedure, shortened: as §1

[5] = tested on: NCI-H2228
Procedure, shortened: as §1

[6] = tested on: NCI-H1437
Procedure, shortened: as §1

[7] = tested on: COR-L 105
Procedure, shortened: as §1

[8] = tested on: LU99A
Procedure, shortened: as §1

[9] = tested on: NCI-H23
Procedure, shortened: as §1

[10] = tested on: BEN
Procedure, shortened: as §1

[11] = tested on: UMC-11
Procedure, shortened: as §1

[12] = tested on: NCI-H1651
Procedure, shortened: as §1

[13] = tested on: NCI-H2405
Procedure, shortened: as §1

[14] = tested on: HCC-15
Procedure, shortened: as §1

[15] = tested on: HCC-827
Procedure, shortened: as §1

[16] = tested on: 201T
Procedure, shortened: as §1

[17] = tested on: HARA
Procedure, shortened: as §1

[18] = tested on: LC-2-ad
Procedure, shortened: as §1

[19] = tested on: NCI-H1792
Procedure, shortened: as §1

[20] = tested on: LXF-289
Procedure, shortened: as §1

[21] = tested on: RERF-LC-KJ
Procedure, shortened: as §1

[22] = tested on: H3255
Procedure, shortened: as §1

Q: Which results are given for `O=c1[nH]c2ccccc2n1C1CCN(CCCC(c2ccc(F)cc2)c2ccc(F)cc2)CC1` [Pimozide] + CC(C)C[C@H](NC(=O)[C@H](Cc1ccccc1)NC(=O)c1cnccn1)B(O)O [Bortezomib] (partner 0.002 µM)?
A: relative viability ([1]; first compound 0.08 µM): 0.972; relative viability ([1]; first compound 0.253 µM): 1.01; relative viability ([1]; first compound 0.8 µM): 1.04; relative viability ([1]; first compound 2.53 µM): 1.13; relative viability ([1]; first compound 8 µM): 0.741; relative viability ([2]; first compound 0.253 µM): 1.26; relative viability ([2]; first compound 0.8 µM): 1.18; relative viability ([2]; first compound 2.53 µM): 1.16; relative viability ([2]; first compound 8 µM): 1.09; relative viability ([3]; first compound 0.08 µM): 0.875; relative viability ([3]; first compound 0.253 µM): 0.979; relative viability ([3]; first compound 0.8 µM): 0.821; relative viability ([3]; first compound 2.53 µM): 0.87; relative viability ([3]; first compound 8 µM): 0.828; relative viability ([4]; first compound 0.08 µM): 1; relative viability ([4]; first compound 0.253 µM): 1.07; relative viability ([4]; first compound 0.8 µM): 0.877; relative viability ([4]; first compound 2.53 µM): 1.08; relative viability ([4]; first compound 8 µM): 1.12; relative viability ([5]; first compound 0.08 µM): 1.11; relative viability ([5]; first compound 0.253 µM): 0.858; relative viability ([5]; first compound 0.8 µM): 0.904; relative viability ([5]; first compound 2.53 µM): 0.728; relative viability ([5]; first compound 8 µM): 0.559; relative viability ([6]; first compound 0.08 µM): 0.492; relative viability ([6]; first compound 0.253 µM): 0.45; relative viability ([6]; first compound 0.8 µM): 0.423; relative viability ([6]; first compound 2.53 µM): 0.507; relative viability ([6]; first compound 8 µM): 0.403; relative viability ([7]; first compound 0.253 µM): 0.749; relative viability ([7]; first compound 0.8 µM): 0.659; relative viability ([7]; first compound 2.53 µM): 0.672; relative viability ([7]; first compound 8 µM): 0.479; relative viability ([8]; first compound 0.08 µM): 1.17; relative viability ([8]; first compound 0.253 µM): 0.978; relative viability ([8]; first compound 0.8 µM): 1.09; relative viability ([8]; first compound 2.53 µM): 1.09; relative viability ([8]; first compound 8 µM): 0.929; relative viability ([9]; first compound 0.08 µM): 0.883; relative viability ([9]; first compound 0.253 µM): 1.04; relative viability ([9]; first compound 0.8 µM): 1.02; relative viability ([9]; first compound 2.53 µM): 0.757; relative viability ([9]; first compound 8 µM): 0.908; relative viability ([10]; first compound 0.08 µM): 0.678; relative viability ([10]; first compound 0.253 µM): 0.81; relative viability ([10]; first compound 0.8 µM): 0.788; relative viability ([10]; first compound 2.53 µM): 0.867; relative viability ([10]; first compound 8 µM): 0.976; relative viability ([11]; first compound 0.08 µM): 0.716; relative viability ([11]; first compound 0.253 µM): 0.802; relative viability ([11]; first compound 0.8 µM): 0.686; relative viability ([11]; first compound 2.53 µM): 0.772; relative viability ([11]; first compound 8 µM): 0.52; relative viability ([12]; first compound 0.08 µM): 0.903; relative viability ([12]; first compound 0.8 µM): 0.993; relative viability ([12]; first compound 2.53 µM): 0.897; relative viability ([12]; first compound 8 µM): 0.972; relative viability ([13]; first compound 0.08 µM): 0.761; relative viability ([13]; first compound 0.253 µM): 0.979; relative viability ([13]; first compound 0.8 µM): 0.979; relative viability ([13]; first compound 2.53 µM): 0.896; relative viability ([13]; first compound 8 µM): 0.984; relative viability ([14]; first compound 0.08 µM): 1.12; relative viability ([14]; first compound 0.253 µM): 0.994; relative viability ([14]; first compound 0.8 µM): 0.848; relative viability ([14]; first compound 2.53 µM): 0.963; relative viability ([14]; first compound 8 µM): 0.908; relative viability ([15]; first compound 0.253 µM): 0.943; relative viability ([15]; first compound 0.8 µM): 0.918; relative viability ([15]; first compound 2.53 µM): 0.982; relative viability ([15]; first compound 8 µM): 1.04; relative viability ([16]; first compound 0.08 µM): 1.07; relative viability ([16]; first compound 0.253 µM): 1.05; relative viability ([16]; first compound 0.8 µM): 1.02; relative viability ([16]; first compound 2.53 µM): 1.08; relative viability ([16]; first compound 8 µM): 1.01; relative viability ([17]; first compound 0.08 µM): 0.857; relative viability ([17]; first compound 0.253 µM): 1.16; relative viability ([17]; first compound 0.8 µM): 0.937; relative viability ([17]; first compound 2.53 µM): 1.17; relative viability ([17]; first compound 8 µM): 1.06; relative viability ([18]; first compound 0.08 µM): 1.09; relative viability ([18]; first compound 0.253 µM): 0.927; relative viability ([18]; first compound 0.8 µM): 0.935; relative viability ([18]; first compound 2.53 µM): 1.03; relative viability ([18]; first compound 8 µM): 0.996; relative viability ([19]; first compound 0.08 µM): 0.951; relative viability ([19]; first compound 0.253 µM): 0.939; relative viability ([19]; first compound 0.8 µM): 0.894; relative viability ([19]; first compound 2.53 µM): 0.875; relative viability ([19]; first compound 8 µM): 0.976; relative viability ([20]; first compound 0.08 µM): 0.989; relative viability ([20]; first compound 0.253 µM): 0.966; relative viability ([20]; first compound 0.8 µM): 0.917; relative viability ([20]; first compound 2.53 µM): 0.94; relative viability ([20]; first compound 8 µM): 0.865; relative viability ([21]; first compound 0.08 µM): 1.1; relative viability ([21]; first compound 0.253 µM): 0.92; relative viability ([21]; first compound 0.8 µM): 0.949; relative viability ([21]; first compound 2.53 µM): 1.02; relative viability ([21]; first compound 8 µM): 0.92; relative viability ([22]; first compound 0.253 µM): 0.802; relative viability ([22]; first compound 0.8 µM): 0.732; relative viability ([22]; first compound 2.53 µM): 0.759; relative viability ([22]; first compound 8 µM): 0.732
